This note sets out measurements from patent US6372749B1, “Pyrazolo[1,5-a]pyrimidine derivatives” (Otsuka Pharmaceutical Factory, Inc., priority 1998, dated 2002).

One data set concerns S.D. rats. Put plainly: Recovery of pain threshold after substance P injection (Randall-Sellitto method). In kind it is in vivo. The note with it: male S.D. rats, oral 5% gum arabic suspension 10 ml/kg, substance P 25 ng/0.1 ml s.c. in left hind paw. As to the method: Using 6-week-old male S.D. rats (7 rats in each group), the pain threshold of each rat's left hind paw plantar was measured using an Analgesy-Meter (product of Unicom) in accordance with the Randall-Sellitto method [Randall, L. O. and Sellitto, J. J., Arch. Int. Pharmacodyn., 111, 409 (1957)]. The value thus obtained was termed “pre-value”.
One hour after the measurement of the pre-value, a 5% gum arabic suspension containing the compound of the invention was orally administered to the rats of the test group in an amount of 10 ml/kg, whereas a 5% gum arabic suspension (not containing the compound of the invention) was orally administered to the rats of the control group in an amount of 10 ml/kg.
One hour later, a physiological saline solution containing substance P (25 ng/0.1 ml) was subcutaneously injected into the left hind paw plantar of each rat.
The pain threshold of each rat's left hind paw was measured in the same manner as above at predetermined time intervals from the substance P injection. The measured value was termed “post-value”.
The recovery (%) of the pain threshold was calculated from the post-values and the pre-values of the test group and the control group, by means of the following formula: [formula]

The mark [1] stands for this setting: time of measurement 60 minutes later.

For `CCCCc1cc(/C=C/c2cc(OC)c(OC)c(OC)c2)n2nccc2n1` [Example 1, (E)-5-n-butyl-7-[2-(3,4,5-trimethoxyphenyl)ethenyl]pyrazolo[1,5-a]pyrimidine], in the data set with S.D. rats (setting [1]), the “Recovery (%) of the pain threshold (the highest recovery %)” value (from here on “Recovery (%) of the pain threshold”) came out at 47.8%.

`CCCCc1cc(/C=C/c2ccc(Cl)cc2)n2nccc2n1` [Example 8, (E)-5-n-butyl-7-[2-(4-chlorophenyl)ethenyl]pyrazolo[1,5-a]pyrimidine]: in the data set on S.D. rats (time of measurement 30 minutes later), the “Recovery (%) of the pain threshold” value came to 36.2%.

For `CCCCc1cc(/C(=C/c2cc(OC)c(OC)c(OC)c2)SC)n2nccc2n1` [Example 12, (Z)-5-n-butyl-7-[1-methylthio-2-(3,4,5-trimethoxyphenyl)ethenyl]pyrazolo[1,5-a]pyrimidine], in the data set on S.D. rats (setting [1]), the “Recovery (%) of the pain threshold” value is 41.5%.

As for `CCCCc1cc(/C(=C\c2cc(OC)c(OC)c(OC)c2)C(=O)O)n2nccc2n1` [Example 40, (E) 2-(5-n-butylpyrazolo[1,5-a]pyrimidin-7-yl)-3-(3,4,5-trimethoxyphenyl)acrylic Acid], the “Recovery (%) of the pain threshold” value in the data set with S.D. rats (setting [1]) was determined as 47.2%.

For `CCCCc1cc(/C(=C\c2cc(OC)c(O)c(OC)c2)C(=O)O)n2nccc2n1` [Example 109, (E) 2-(5-n-butylpyrazolo[1,5-a]pyrimidin-7-yl)-3-(4-hydroxy-3,5-dimethoxyphenyl)acrylic acid], the melting point – broadly, the temperature of the solid-liquid transition – was > 152 °C (dec.). Further, the “Recovery (%) of the pain threshold” value in the data set on S.D. rats (setting [1]) is 52.1%.
